Series [1] is described as follows: CC50 assay (CellTiter-Glo) in Huh-7 HCV replicon cells. The class given is cell-based, human. As to conditions: human, 3 days incubation, CellTiter-Glo readout. The procedure:
(§1) The anti-HCV activity of the pyrido[3,2-d]pyrimidine derivatives of this invention was tested in a human hepatoma Huh-7 cell line harboring a HCV replicon. The assay comprised the following steps:
(§2) Step 1: Compound Preparation and Serial Dilution
(§3) • 1. for water soluble pyrido[3,2-d]pyrimidine derivatives, a volume of 500 μL of solution in cell media (DMEM, 10% FBS, P/S, L-Glutamine) was prepared with a concentration being twice the concentration of the starting final serial dilution concentration. A volume of 150 μL of the solution was added to the pre-specified wells in column 1 of a 96-well cell culture plate (PerkinElmer, white plate, cat. #6005181, for EC50 assay; black plate, cat. #6005182 for CC50 assay). The rest of the plate, columns 2-12, was filled with 100 μL of cell media. The plate was then placed on a Precision 2000 Workstation to start the serial dilution. Compounds were diluted three times each step from column 1 to column 10. Column 11 was used as a blank control (no compound added). • 2. for pyrido[3,2-d]pyrimidine derivatives requiring DMSO to dissolve, serial dilution is performed in 50% DMSO in a 384-well plate. A solution containing a compound at 100-fold concentration of the starting final serial dilution concentration was prepared in 50% DMSO and added to the pre-specified wells in column 1 of a polypropylene 384-well plate. The plate was then placed on a Precision 2000 Workstation to start the serial dilution. After the serial dilution, a volume of 2 μL of the solution was transferred from the 384-well plate to a 96-well cell culture plate containing 100 μL of cell media on a Biomek FX Workstation. The DMSO concentration in the final assay condition was 0.5% after cells are added to the plate and the total volume in each well is brought to 200 μL.
(§4) Step 2: to each well of the serial dilution plate prepared above, 100 μL of cell media containing 6000 suspended Huh-7 HCV replicon cells was added with a Multidrop workstation. The plates were incubated for 3 days at 37° C. with 5% CO2.
(§5) • a) for the EC50 assay, the media in a 96-well cell culture plate was aspirated with a Biotek EL405 plate-washer. A volume of 200 μL of a solution containing a 1:1 mixture of cell-lysis buffer (Promega, Luciferase Cell Culture Lysis 5× Reagent, cat. #E1531) and luciferase substrate solution (Promega, Luciferase Assay, cat.#E4550) was added to each well of the plate with Multidrop. The plate was incubated for 30 minutes at room temperature before the luminescence signal was measured with a TopCount plate-reader. • b) for the CC50 assay, a volume of 100 μL of pre-mixed CellTiter-Glo (Promega, cat.#G7572) solution is added directly to the cell culture in each well of the plate and the luminescence signal is measured with a TopCount plate-reader after 10 minutes of incubation at room temperature.
A general note: ATP-based viability assays read luminescence as a measure of living cells.

Series [2] concerns HCV replicon in human hepatoma Huh-7 cell line. The series is described as follows: Anti-HCV replicon assay (EC50, luciferase). The class given is cell-based. The note with it: Hepatitis C virus, Huh-7, 72 h. The procedure: as §1, §2, §3, §4, §5
For orientation: A replicon is a self-replicating genome or part of one, used to study replication in cells.

The text below walks through data of US8729089B2 (Gilead Sciences, Inc., priority 2006, dated 2014).

The structures appear in SMILES notation.

For the compound `CCOc1nc(NCc2ccc(F)cc2)nc2ccc(-c3ccc(NC(=O)OCCN4CCCC4)cc3)nc12` [Example 92, {4-[4-Ethoxy-2-(4-fluoro-benzylamino)-pyrido[3,2-d]pyrimidin-6-yl]-phenyl}-carbamic acid 2-pyrrolidin-1-yl-ethyl ester], the CC50 (as a rule, the concentration at which the toxic effect on the cells reaches its halfway point) at 3 days in series [1] is less than 5 µM. The EC50 – broadly, the concentration giving half of the maximal effect – in series [2] is less than 0.1 µM.

In the case of `Fc1ccc(-c2ccc3nc(NCCn4cncn4)nc(NCC(F)(F)F)c3n2)cc1` [Example 254, 6-(4-Fluoro-phenyl)-N2-(2-[1,2,4]triazol-1-yl-ethyl)-N4-(2,2,2-trifluoro-ethyl)-pyrido[3,2-d]pyrimidine-2,4-diamine], the CC50 at 3 days in series [1] was more than 25 µM. This compound also returned an EC50 in series [2] of less than 0.1 µM.

In turn, `CCOc1nc(NCc2ccc(F)cc2)nc2ccc(-c3ccc(NC(=O)NC4CC4)cc3)nc12` [Example 74, 1-Cyclopropyl-3-{4-[4-ethoxy-2-(4-fluoro-benzylamino)-pyrido[3,2-d]pyrimidin-6-yl]-phenyl}-urea] gave a half-maximal cytotoxic concentration (CC50) at 3 days in series [1] of 5 to 25 µM. This compound also gave an EC50 in series [2] of less than 0.1 µM.

In the case of `COCCNc1nc(NCC(F)(F)F)c2nc(-c3ccc(F)cc3)ccc2n1` [Example 252, 6-(4-Fluoro-phenyl)-N2-(2-methoxy-ethyl)-N4-(2,2,2-trifluoro-ethyl)-pyrido[3,2-d]pyrimidine-2,4-diamine], the CC50 at 3 days in series [1] was 5 to 25 µM. The same compound gave a half-maximal effective concentration (EC50) in series [2] of less than 0.1 µM.

With `O=C1C(O)CCN1c1ccc(-c2ccc3nc(NCc4ccc(F)cc4)nc(NCC(F)(F)F)c3n2)cc1` (stereo not shown) [Example 275, 1-{4-[2-(4-Fluoro-benzylamino)-4-(2,2,2-trifluoro-ethylamino)-pyrido[3,2-d]pyrimidin-6-yl]-phenyl}-3-hydroxy-pyrrolidin-2-one], in series [1], the CC50 at 3 days is less than 5 µM. The EC50 in series [2] was less than 0.1 µM.

As to `NS(=O)(=O)c1ccc(CNc2nc(C3CC3)c3nc(-c4ccc(F)cc4)ccc3n2)cc1` [Example 294, 4-{[4-Cyclopropyl-6-(4-fluoro-phenyl)-pyrido[3,2-d]pyrimidin-2-ylamino]-methyl}-benzenesulfonamide], in series [1], the half-maximal cytotoxic concentration (CC50) at 3 days was less than 5 µM. In series [2], this compound yielded an EC50 of less than 0.1 µM.

As for `CCOc1nc(NCc2ccc(S(N)(=O)=O)cc2)nc2ccc(-c3ccc(NC(=O)[C@@H](N)CO)cc3)nc12` [Example 137, (S)-4-{[4-Ethoxy-6-(4-((2-hydroxy-1-aminoethyl)-carboxamido)-phenyl)-pyrido[3,2-d]pyrimidin-2-ylamino]-methyl}-benzenesulfonamide], in series [1], the CC50 at 3 days is 5 to 25 µM. Also, in series [2], the EC50 is less than 0.1 µM.

As for `Fc1ccc(-c2ccc3nc(NCc4ncco4)nc(NCC(F)(F)F)c3n2)cc1` [Example 253, 6-(4-Fluoro-phenyl)-N2-oxazol-2-ylmethyl-N4-(2,2,2-trifluoro-ethyl)-pyrido[3,2-d]pyrimidine-2,4-diamine], in series [1], the CC50 at 3 days was less than 5 µM. For the same compound, the EC50 in series [2] is less than 0.1 µM.

As for `CC(C)Nc1nc(NCc2ccccn2)nc2ccc(-c3ccc(F)cc3)nc12` [Example 53, 6-(4-Fluoro-phenyl)-N4-isopropyl-N2-pyridin-2-ylmethyl-pyrido[3,2-d]pyrimidine-2,4-diamine], the half-maximal cytotoxic concentration (CC50) at 3 days in series [1] is 5 to 25 µM. In series [2], this compound displayed an EC50 of 0.1 to 0.25 µM.

As for `NS(=O)(=O)c1ccc(CNc2nc(NCC(F)(F)F)c3nc(-c4ccc(F)c(S(=O)(=O)N5CCNCC5)c4)ccc3n2)cc1` [Example 217, 4-{[6-[4-Fluoro-3-(piperazine-1-sulfonyl)-phenyl]-4-(2,2,2-trifluoro-ethylamino)-pyrido[3,2-d]pyrimidin-2-ylamino]-methyl}-benzenesulfonamide], in series [1], the CC50 at 3 days is less than 5 µM. For the same compound, the EC50 in series [2] is less than 0.1 µM.

For the compound `NS(=O)(=O)c1ccc(CNc2nc(NCC(F)(F)F)c3nc(-c4ccc(O)cc4)ccc3n2)cc1` [Example 171, 4-{[6-(4-Hydroxy-phenyl)-4-(2,2,2-trifluoro-ethylamino)-pyrido[3,2-d]pyrimidin-2-ylamino]-methyl}-benzenesulfonamide], the CC50 at 3 days in series [1] is more than 25 µM. In addition, in series [2], the EC50 is less than 0.1 µM.

Compound `NS(=O)(=O)c1ccc(CNc2nc(NCC(F)(F)F)c3nc(-c4ccnc(C(F)(F)F)c4)ccc3n2)cc1` [Example 168, 4-{[4-(2,2,2-Trifluoro-ethylamino)-6-(2-trifluoromethyl-pyridin-4-yl)-pyrido[3,2-d]pyrimidin-2-ylamino]-methyl}-benzenesulfonamide] came in with a CC50 at 3 days in series [1] of more than 25 µM. The EC50 in series [2] was less than 0.1 µM.

Consider `CCOc1nc(NCc2ccc(-n3cncn3)cc2)nc2ccc(-c3ccc(F)cc3)nc12` [Example 267, [4-Ethoxy-6-(4-fluoro-phenyl)-pyrido[3,2-d]pyrimidin-2-yl]-(4-[1,2,4]triazol-1-yl-benzyl)-amine], for which the CC50 at 3 days in series [1] is more than 25 µM. The same compound returned an EC50 in series [2] of less than 0.1 µM.

Consider `CCOc1nc(NCc2ccc(S(N)(=O)=O)cc2)nc2ccc(-c3ccc(NC(=O)N4CCOCC4)cc3)nc12` [Example 128, 4-{[4-Ethoxy-6-(4-(morpholine-4-carboxamido)-phenyl)-pyrido[3,2-d]pyrimidin-2-ylamino]-methyl}-benzenesulfonamide], for which the CC50 at 3 days in series [1] was in the range of 5 to 25 µM. Besides, in series [2], the EC50 is less than 0.1 µM.

`NS(=O)(=O)c1ccc(CNc2nc(NCC(F)(F)F)c3nc(-c4ccc(Cl)cc4)ccc3n2)cc1` [Example 192, 4-{[6-(4-Chloro-phenyl)-4-(2,2,2-trifluoro-ethylamino)-pyrido[3,2-d]pyrimidin-2-ylamino]-methyl}-benzenesulfonamide] showed a CC50 at 3 days in series [1] of 5 to 25 µM. In series [2], this compound had an EC50 of less than 0.1 µM.

`CCOc1nc(NCc2ccc(F)cc2)nc2ccc(-c3ccc(N4CC(O)CC4=O)cc3)nc12` (stereo not shown) [Example 76, 1-{4-[4-Ethoxy-2-(4-fluoro-benzylamino)-pyrido[3,2-d]pyrimidin-6-yl]-phenyl}-4-hydroxy-pyrrolidin-2-one] gave a CC50 at 3 days in series [1] of 5 to 25 µM. Further, the EC50 in series [2] was less than 0.1 µM.

Consider `CCOc1nc(NCc2ccc(F)cc2)nc2ccc(-c3ccc(C(=O)NC4(C#N)CC4)cc3)nc12` [Example 98, N-(1-Cyano-cyclopropyl)-4-[4-ethoxy-2-(4-fluoro-benzylamino)-pyrido[3,2-d]pyrimidin-6-yl]-benzamide], for which, in series [1], the CC50 at 3 days is more than 25 µM. The EC50 in series [2] is less than 0.1 µM.

With `Cc1ccc(Nc2nc(NC(C)C)c3nc(-c4ccc(F)cc4)ccc3n2)nn1` [Example 52, 6-(4-Fluoro-phenyl)-N4-isopropyl-N2-(6-methyl-pyridazin-3-yl)-pyrido[3,2-d]pyrimidine-2,4-diamine], the CC50 at 3 days in series [1] is 5 to 25 µM. Besides, in series [2], the EC50 lay in the range of 0.25 to 2 µM.

With `CCOc1nc(NCc2ccc(F)cc2)nc2ccc(-c3ccc(F)c(Cl)c3)nc12` [Example 64, [6-(3-Chloro-4-fluoro-phenyl)-4-ethoxy-pyrido[3,2-d]pyrimidin-2-yl]-(4-fluoro-benzyl)-amine], the CC50 at 3 days in series [1] was in the range of 5 to 25 µM. In series [2], this compound gave an EC50 of less than 0.1 µM.

Compound `NS(=O)(=O)c1ccc(CNc2nc(NCC(F)F)c3nc(-c4ccc(F)cc4)ccc3n2)cc1` [Example 151, 4-{[4-(2,2-Difluoroethyl)-amino-6-(4-fluorophenyl)-pyrido[3,2-d]pyrimidin-2-ylamino]-methyl}-benzenesulfonamide] returned a CC50 at 3 days in series [1] of less than 5 µM. The compound further yielded an EC50 in series [2] of less than 0.1 µM.

Take `CS(=O)(=O)CCNc1nc(NCc2ccc(S(N)(=O)=O)cc2)nc2ccc(-c3cnc(N)s3)nc12` [Example 148, 4-{[4-(2-Methanesulfonylethyl)-amino-6-(2-aminothiazole-5-yl)-pyrido[3,2-d]pyrimidin-2-ylamino]-methyl}-benzenesulfonamide]: the CC50 at 3 days in series [1] is 5 to 25 µM. For the same compound, the EC50 in series [2] is less than 0.1 µM.

Regarding `CCNc1nc(NCc2ccc(F)cc2)nc2ccc(-c3ccc(F)cc3)nc12` [Example 30, N4-Ethyl-N2-(4-fluoro-benzyl)-6-(4-fluoro-phenyl)-pyrido[3,2-d]pyrimidine-2,4-diamine], the CC50 at 3 days in series [1] was in the range of 5 to 25 µM. Also, the EC50 in series [2] is less than 0.1 µM.

For the compound `CCOc1nc(NCc2ccc(F)c(Cl)c2)nc2ccc(-c3ccc(F)cc3)nc12` [Example 42, (3-Chloro-4-fluoro-benzyl)-[4-ethoxy-6-(4-fluoro-phenyl)-pyrido[3,2-d]pyrimidin-2-yl]-amine], the 50% cytotoxic concentration (CC50) at 3 days in series [1] lay in the range of 5 to 25 µM. The compound also had an EC50 in series [2] of less than 0.1 µM.
